In patent publication US20120108557A1, “FLUOROQUINOLONE DERIVATIVES FOR OPHTHALMIC APPLICATIONS” (ALCON RESEARCH, LTD., priority 2008, published 2012):

Assays:
Type in all cases: cell-based
microorganisms = assay: In vitro antimicrobial activity test, whole panel of test organisms; conditions: across the test organisms of TABLE 3
Protocol: (§1) The activity of the compounds of the present invention was evaluated using an in vitro assay. Microorganisms were prepared from growth on agar media, in broth culture, or from thawed cryopreserved cultures. Fungal cultures were filtered to remove mycelial elements.
(§2) Using Mueller Hinton II Broth, 0.9% saline or other appropriate media, a suspension of each culture was prepared and adjusted to a turbidity equivalent to that of a 0.5 McFarland Standard. (Cultures adjusted to the 0.5 McFarland Standard generally contain approximately 1.0×10^8 CFU/mL). The adjusted suspension for each culture was diluted 1:10 in the appropriate media so that the inoculum concentration approximates 1.0×10^7 CFU/mL.
(§3) The antimicrobial agent to be tested was weighed and diluted with a volume of sterile distilled water calculated to yield the necessary starting concentration. Serial 1:2 dilutions of the antimicrobial agent in sterile distilled water were prepared (approximately 10-12 test concentrations comprise a reasonable experimental range). A known amount of each antimicrobial dilution was combined with an aliquot of agar medium calculated to yield the desired final antimicrobial test concentration and dispensed onto plates.
(§4) The amount of antimicrobial agent to be weighed was determined using the following equation: […]
(§5) Antimicrobial stock solutions were prepared at concentrations 5-10 times the highest concentration to be tested (routinely 1024 μg/mL). […] The stock solution was diluted to appropriate concentration using sterile water to form a working solution. The working solution was diluted two-fold, in sterile water, until the desired concentration is obtained.
Mueller Hinton II agar was prepared as described by the manufacturer. Mueller Hinton II agar may be supplemented with 5% defibrinated sheep blood for testing streptococci. Agar was added to the serially diluted antimicrobial solution in each container. The solutions were mixed thoroughly and poured into petri dishes (about 25 mL/plate). The pH of the agar at 25° C. should be between 7.2 and 7.4. […]

Staphylococcus aureus = assay: In vitro antimicrobial activity, agar dilution MIC
Protocol: as §1, §2, §3, §4, §5
(§6) Mueller Hinton II agar was prepared as described by the manufacturer. Mueller Hinton II agar may be supplemented with 5% defibrinated sheep blood for testing streptococci. Agar was added to the serially diluted antimicrobial solution in each container. The solutions were mixed thoroughly and poured into petri dishes (about 25 mL/plate). The pH of the agar at 25° C. should be between 7.2 and 7.4.
(§7) At least one inocula control plate was inoculated (agar medium without antimicrobial agent) from each seed plate before inoculating test plates. Test plates were inoculated starting at the lowest concentration and proceeding to the highest concentration. After all test plates were inoculated, an additional control plate (agar medium without antimicrobial agent) was inoculated. The plates were incubated in a non-CO2 incubator (or CO2 incubator depending on growth requirements); 18-24 hours at 32-35° C. was sufficient for most organisms.
(§8) All inoculation points on the agar surface were examined for the presence of growth as compared to the inoculum control plates. The results were summarized and use to determine Minimal Inhibitory Concentrations (MICs): The MIC is the lowest concentration of the antimicrobial agent which prevents visible growth of the organism (negative score).

MRSA = assay: In vitro antimicrobial activity, agar dilution MIC
Protocol: as §1, §2, §3, §4, §5, §6, §7, §8

Serratia marcescens = assay: In vitro antimicrobial activity, agar dilution MIC
Protocol: as §1, §2, §3, §4, §5, §6, §7, §8

[1] = tested on: Stenotrophomonas maltophilia; assay: In vitro antimicrobial activity, agar dilution MIC
Protocol: as §1, §2, §3, §4, §5, §6, §7, §8

Streptococcus pneumoniae = assay: In vitro antimicrobial activity, agar dilution MIC
Protocol: as §1, §2, §3, §4, §5, §6, §7, §8

[2] = tested on: Corynebacterium amycolatum; assay: In vitro antimicrobial activity, agar dilution MIC
Protocol: as §1, §2, §3, §4, §5, §6, §7, §8

MRSE = assay: In vitro antimicrobial activity, agar dilution MIC
Protocol: as §1, §2, §3, §4, §5, §6, §7, §8

Enterococcus faecalis = assay: In vitro antimicrobial activity, agar dilution MIC
Protocol: as §1, §2, §3, §4, §5, §6, §7, §8

Streptococcus mitis = assay: In vitro antimicrobial activity, agar dilution MIC
Protocol: as §1, §2, §3, §4, §5, §6, §7, §8

Enterobacter hormaechei = assay: In vitro antimicrobial activity, agar dilution MIC; conditions: test organism 31, Enterobacter hormaechei
Protocol: as §1, §2, §3, §4, §5, §6, §7, §8

Morganella morganii = assay: In vitro antimicrobial activity, agar dilution MIC
Protocol: as §1, §2, §3, §4, §5, §6, §7, §8

Acinetobacter junii = assay: In vitro antimicrobial activity, agar dilution MIC
Protocol: as §1, §2, §3, §4, §5, §6, §7, §8

Pseudomonas aeruginosa = assay: In vitro antimicrobial activity, agar dilution MIC
Protocol: as §1, §2, §3, §4, §5, §6, §7, §8

MSSA = assay: In vitro antimicrobial activity, agar dilution MIC; conditions: test organism 6, MSSA
Protocol: as §1, §2, §3, §4, §5, §6, §7, §8

[3] = tested on: Staphylococcus haemolyticus; assay: In vitro antimicrobial activity, agar dilution MIC
Protocol: as §1, §2, §3, §4, §5, §6, §7, §8

[4] = tested on: Staphylococcus epidermidis; assay: In vitro antimicrobial activity, agar dilution MIC
Protocol: as §1, §2, §3, §4, §5, §6, §7, §8

Escherichia coli = assay: In vitro antimicrobial activity, agar dilution MIC
Protocol: as §1, §2, §3, §4, §5, §6, §7, §8

Acinetobacter baumannii = assay: In vitro antimicrobial activity, agar dilution MIC; conditions: test organism 26, Acinetobacter baumannii
Protocol: as §1, §2, §3, §4, §5, §6, §7, §8

Nc1c(F)c(N2CC3CCCNC3C2)c(F)c2c1c(=O)c(C(=O)O)cn2C1CC1 (stereo not drawn) [Compound 3]
antimicrobial activity compared to moxifloxacin (in words) (microorganisms): showed increased antimicrobial activity against most microorganisms

moxifloxacin [reference compound]
Minimal Inhibitory Concentration (MIC) (Staphylococcus aureus; test organism 1, Staphylococcus aureus): 0.06 | Minimal Inhibitory Concentration (MIC) (Staphylococcus aureus; test organism 2, Staphylococcus aureus): ≦0.25 | Minimal Inhibitory Concentration (MIC) (MRSA; test organism 3, MRSA): 2 | Minimal Inhibitory Concentration (MIC) (MRSA; test organism 4, MRSA): 4 | Minimal Inhibitory Concentration (MIC) (MRSA; test organism 5, MRSA): >2 | Minimal Inhibitory Concentration (MIC) (Serratia marcescens; test organism 39, Serratia marcescens): 2 | Minimal Inhibitory Concentration (MIC) (Serratia marcescens; test organism 40, Serratia marcescens): 2 | Minimal Inhibitory Concentration (MIC) ([1]; test organism 41, Stenotrophomonas maltophilia): >4 | Minimal Inhibitory Concentration (MIC) ([1]; test organism 42, Stenotrophomonas maltophilia): 0.125 | Minimal Inhibitory Concentration (MIC) (Streptococcus pneumoniae; test organism 19, Streptococcus pneumoniae): 0.25 | Minimal Inhibitory Concentration (MIC) (Streptococcus pneumoniae; test organism 20, Streptococcus pneumoniae): ≦0.25 | Minimal Inhibitory Concentration (MIC) ([2]; test organism 24, Corynebacterium amycolatum): 0.03 | Minimal Inhibitory Concentration (MIC) ([2]; test organism 25, Corynebacterium amycolatum): >4 | Minimal Inhibitory Concentration (MIC) (MRSE; test organism 9, MRSE): >2 | Minimal Inhibitory Concentration (MIC) (MRSE; test organism 10, MRSE): >2 | Minimal Inhibitory Concentration (MIC) (MRSE; test organism 11, MRSE): >4 | Minimal Inhibitory Concentration (MIC) (Enterococcus faecalis; test organism 15, Enterococcus faecalis): 0.5 | Minimal Inhibitory Concentration (MIC) (Enterococcus faecalis; test organism 16, Enterococcus faecalis): ≦0.25 | Minimal Inhibitory Concentration (MIC) (Enterococcus faecalis; test organism 17, Enterococcus faecalis): >4 | Minimal Inhibitory Concentration (MIC) (Enterococcus faecalis; test organism 18, Enterococcus faecalis): >2 | Minimal Inhibitory Concentration (MIC) (Streptococcus mitis; test organism 21, Streptococcus mitis): ≦0.25 | Minimal Inhibitory Concentration (MIC) (Streptococcus mitis; test organism 22, Streptococcus mitis): 0.125 | Minimal Inhibitory Concentration (MIC) (Streptococcus mitis; test organism 23, Streptococcus mitis): 4 | Minimal Inhibitory Concentration (MIC) (Enterobacter hormaechei): >4 | Minimal Inhibitory Concentration (MIC) (Morganella morganii; test organism 35, Morganella morganii): 0.5 | Minimal Inhibitory Concentration (MIC) (Morganella morganii; test organism 36, Morganella morganii): 4 | Minimal Inhibitory Concentration (MIC) (Acinetobacter junii; test organism 27, Acinetobacter junii): ≦0.25 | Minimal Inhibitory Concentration (MIC) (Acinetobacter junii; test organism 28, Acinetobacter junii): 0.25 | Minimal Inhibitory Concentration (MIC) (Acinetobacter junii; test organism 29, Acinetobacter junii): >4 | Minimal Inhibitory Concentration (MIC) (Pseudomonas aeruginosa; test organism 37, Pseudomonas aeruginosa): >4 | Minimal Inhibitory Concentration (MIC) (Pseudomonas aeruginosa; test organism 38, Pseudomonas aeruginosa): 4 | Minimal Inhibitory Concentration (MIC) (MSSA): >4 | Minimal Inhibitory Concentration (MIC) ([3]; test organism 12, Staphylococcus haemolyticus): 0.5 | Minimal Inhibitory Concentration (MIC) ([3]; test organism 13, Staphylococcus haemolyticus): 2 | Minimal Inhibitory Concentration (MIC) ([3]; test organism 14, Staphylococcus haemolyticus): >4 | Minimal Inhibitory Concentration (MIC) ([4]; test organism 7, Staphylococcus epidermidis): 0.06 | Minimal Inhibitory Concentration (MIC) ([4]; test organism 8, Staphylococcus epidermidis): 1 | Minimal Inhibitory Concentration (MIC) (Escherichia coli; test organism 32, Escherichia coli): 0.125 | Minimal Inhibitory Concentration (MIC) (Escherichia coli; test organism 33, Escherichia coli): ≦0.25 | Minimal Inhibitory Concentration (MIC) (Escherichia coli; test organism 34, Escherichia coli): >4 | Minimal Inhibitory Concentration (MIC) (Acinetobacter baumannii): ≦0.25
